# Laboratory results from patent publication US20230398586A1, “METHOD FOR DECOMPOSING PLANT MATTER” (DANSTAR FERMENT AG, priority 2020, published 2023).
# Columns and labels:
# Assay type in all cases: in vivo
# [1] = system: Venturia inaequalis ascospores; experiment: Ascospore projection from overwintered leaves (Kollar waterbath protocol); conditions: M2: one application at 50 kg/ha (30% fallen leaves); untreated control 139
# Procedure: The objective of this trial was to evaluate the efficacy of the soluble yeast cell wall derivatives on their ability to reduce the apple scab inoculum (i.e. ascospores) on overwintering leaves.
# The trial was carried out on a “Gala” apple variety in an orchard severely affected by apple scab.
# The following treatments were tested: M1: untreated control; M2: urea, one application at […]: soluble yeast cell wall derivatives (Lallemand), one application at 5 l/ha (30% fallen leaves); M4: soluble yeast cell wall derivatives, one application at 10 l/ha (30% fallen leaves); M5: soluble yeast cell wall derivatives, two applications at 10 l/ha (first application at beginning of leaf drop and second application at 30% fallen leaves). Each treatment had three replicates.
# One batch of 100 g of leaves per replication was placed in plastic mesh bags with fine mesh on the outdoor ground, in orchard conditions. Treatments were applied in November to the trees using a backpack sprayer (SOLO) at a volume of 1000 L/ha. […]
# The ascospore projection of Venturia inaequalis was evaluated in March. […]
# All meteorological records came from the SudAgroMétéo station on the SudExpé Marsillargues site. […] The results were analyzed using a one-way ANOVA and multiple comparisons of the mean were analysed using a Tukey post-hoc test at 5% threshold. […]
# [2] = system: apple tree leaves on the orchard floor; experiment: Visual in-field leaf degradation rating per grid, first trial
# Description: The objective of this trial was to establish the potential of soluble yeast cell wall derivatives to accelerate degradation of apple tree leaves on the orchard floor thereby reducing overwintering potential of apple scab (Venturia inaequalis).
# (§1) At 95% leaf drop, two populations of autumn leaves were collected: 1) yellow leaves (yellow leaves ready to fall; harvested from the treatment trees and placed into wire grids; and 2) brown leaves (brown leaves which have fallen but not yet showing visible degradation collected from the orchard floor and placed into wire grids).
# (§2) The following treatments were tested: 1) untreated control (no application); 2) water control (1000 L water per hectare); 3) urea ([…] per 1000 L per hectare); and 4) soluble yeast cell wall derivatives (Lallemand) (5 kg dry matter/ha; 10 L/ha in 1000 L water per hectare).
# (§3) Treatments were applied to the soil using a non-mechanised back pack sprayer as applicator, in a one meter radius around the tree stem (grids were placed within this circumference).
# (§4) Treatment application times: 1) 95% leaf drop; 2) 95% leaf drop+two weeks; and 3) 95% leaf drop+four weeks.
# All evaluations were done separately on each of the two leaf populations selected at the start of the trial.
# Leaf degradation according to a 0-9 scale, on a per grid estimate, reflecting the surface area which has decomposed; with “0” representing no degradation, “3” being approx. 30% degradation, “6” representing 60% degradation, and “9” complete degradation. […]
# [3] = system: apple tree leaves on the orchard floor; experiment: Leaf area degradation by leaf area scanner, first trial; conditions: for Average leaf area reduction: leaf area scanning method
# Procedure: as §1, §2, §3, §4
# Leaf degradation was expressed as the reduction in leaf area (mm^2) based on readings taken with a leaf area scanner (LI-COR, LI-3050C Transparent Belt Conveyor). Samples were placed onto a transparent conveyor belt which allowed the leaf to pass through the scanning head. The accumulated leaf area was determined by passing all leaves of a grid through the scanner and subsequently an average per leaf area (mm 2).
# [4] = brown leaves, 4 weeks after the last application
# [5] = brown leaves, 8 weeks after the last application
# [6] = brown leaves, 10 weeks after the last application
# [7] = yellow leaves, 6 weeks after the last application
# [8] = yellow leaves, 8 weeks after the last application
# [9] = yellow leaves, 10 weeks after the last application
smiles,measurement,setting,value
NC(N)=O [urea],Average concentration of apple scab ascospores discharged in the overwintered leaves,[1],39 ascospores/μl
same,"Average leaf degradation score in the sampling grids, degradation category (scale 0-9)",[2]; [4],1.0
same,percentage by which leaf degradation of a treatment exceeded the water control,[2]; [4],(+43%)
same,"Average leaf degradation score in the sampling grids, degradation category (scale 0-9)","[2]; brown leaves, 6 weeks after the last application",2.2 ab
same,"Average leaf degradation score in the sampling grids, degradation category (scale 0-9)",[2]; [5],3.2 ab
same,percentage by which leaf degradation of a treatment exceeded the water control,[2]; [5],(+60%)
same,"Average leaf degradation score in the sampling grids, degradation category (scale 0-9)",[2]; [6],4.3 ab
same,percentage by which leaf degradation of a treatment exceeded the water control,[2]; [6],(+34%)
same,"Average leaf degradation score in the sampling grids, degradation category (scale 0-9)","[2]; brown leaves, 12 weeks after the last application",5.7 ab
same,leaf degradation reached,"[2]; first trial, 12 weeks after the last application, cold weather, lack of rains",≤ 50%
same,"Average leaf degradation score in the sampling grids, degradation category (scale 0-9)","[2]; yellow leaves, 4 weeks after the last application",1.3a
same,"Average leaf degradation score in the sampling grids, degradation category (scale 0-9)",[2]; [7],2.5a
same,percentage by which leaf degradation of a treatment exceeded the water control,[2]; [7],(+39%)
same,"Average leaf degradation score in the sampling grids, degradation category (scale 0-9)",[2]; [8],3.2a
same,percentage by which leaf degradation of a treatment exceeded the water control,[2]; [8],(+14%)
same,"Average leaf degradation score in the sampling grids, degradation category (scale 0-9)",[2]; [9],3.8 a
same,percentage by which leaf degradation of a treatment exceeded the water control,[2]; [9],(+9%)
same,"Average leaf degradation score in the sampling grids, degradation category (scale 0-9)","[2]; yellow leaves, 12 weeks after the last application",5.3ab
same,Leaf area reduction relative to the water control,[3]; brown leaves,(+52%)
same,Average leaf area reduction,[3]; brown leaves,14.1 bc mm^2
same,Leaf area reduction relative to the water control,[3]; yellow leaves,(+10%)
same,Average leaf area reduction,[3]; yellow leaves,15.0 abc mm^2
